Where two headings read alike, the source gives them in different places.
How the values were obtained:
Format in all cases: cell-based
[1] = test system: T47D cells expressing mutant PI3Ka (H1047R); assay: In vitro cell proliferation, T47D cells (CellTiter-Glo); conditions: inhibition of proliferation, read-out: Avg T-47D EC50
In short: (§1)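 T47D cells in RPMI/10% FBS/insulin (0.2 units/mL) or SKBR3 in McCoys 5a/10% FBS, 1,500 cells/well, grown 72 h at 37 °C with 10-point compound dilutions. CellTiter-Glo luminescence; % inhibition normalised to 0.1% DMSO and 10 uM Alpelisib, EC50 from four-parameter curve fit.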

[2] = test system: SKBR3 cells express WT PI3Ka; assay: In vitro cell proliferation, SKBR3 cells (CellTiter-Glo); conditions: inhibition of proliferation
In short: as §1

[3] = test system: phosphorylation of AKT (pAKT) in T47D cells expressing mutant PI3Ka (H1047R); assay: In vitro cell pAKT (Ser473) HTRF, T47D cells; conditions: cellular pAKT, T47D cells, mutant PI3Ka (H1047R), 6 hours, read-out: Avg T-47D IC50
In short: (§2)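 Cells seeded on plates pre-stamped with 10-point compound dilutions, then grown 6 h at 37 °C (T47D in RPMI/10% FBS/insulin; SKBR3 in McCoy's 5a/10% FBS). Lysates read for pAKT Ser473 by HTRF after overnight antibody incubation. Inhibition normalised to 0.1% DMSO and 10 uM alpelisib; IC50 by four-parameter fit.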

[4] = test system: phosphorylation of AKT (pAKT) in SKBR3 cells express WT PI3Ka; assay: In vitro cell pAKT (Ser473) HTRF, SKBR3 cells; conditions: cellular pAKT
In short: as §2

SMILES	EC50 ([1]; Homo sapiens, T47D, 72 h)	EC50 ([2]; Homo sapiens, SK-BR-3, 72 h)	IC50 ([3]; Homo sapiens, T47D, 6 h)	IC50 ([4]; Homo sapiens, SK-BR-3, 6 h)	EC50 ([1]; 72 hours)	EC50 ([2]; 72 hours)	IC50 [3]	IC50 ([4]; 6 hours)
Cc1cc([C@@H](C)Nc2ccccc2C(=O)O)c2cc(N3CCn4c(nnc4C4CC4)C3)n(C)c(=O)c2c1 [Example 445]	2000 to 15000 nM	> 15000 nM	2000 to 15000 nM	> 15000 nM	–	–	–	–
Cc1cc([C@@H](C)Nc2ccccc2C(=O)O)c2cc(N3CCn4nc(C)cc4C3)n(C)c(=O)c2c1 [Example 446]	1 to 500 nM	> 15000 nM	1 to 500 nM	> 15000 nM	–	–	–	–
CC(Nc1ccccc1C(=O)O)c1cc(F)cc2c(=O)n(C)c(-c3ccc(OC4CC(F)C4)nc3)cc12 (stereo not drawn) [Example 447]	–	–	–	–	1 to 500 nM	> 15000 nM	1 to 500 nM	> 15000 nM
CC(Nc1ccccc1C(=O)O)c1cc(F)cc2c(=O)n(C)c(-c3ccc(OC4CC(F)C4)nc3)cc12 (stereo not drawn) [Example 448]	–	–	–	–	1 to 500 nM	> 15000 nM	1 to 500 nM	> 15000 nM
Cc1csc(N2CCN(c3cc4c([C@@H](C)Nc5ccccc5C(=O)O)cc(F)cc4c(=O)n3C)CC2)n1 [Example 453]	1 to 500 nM	2000 to 15000 nM	1 to 500 nM	> 15000 nM	–	–	–	–
C[C@@H](Nc1cccc(F)c1C(=O)O)c1cc(F)cc2c(=O)n(C)c(C3CC3)cc12 [Example 454]	1 to 500 nM	> 15000 nM	1 to 500 nM	> 15000 nM	–	–	–	–
C[C@@H](Nc1ccccc1C(=O)O)c1cc(F)cc2c(=O)n(C)c(C3CC3)cc12 [Example 455]	1 to 500 nM	> 15000 nM	1 to 500 nM	> 15000 nM	–	–	–	–
Cc1ccc(N2CCN(c3cc4c([C@@H](C)Nc5cccc(F)c5C(=O)O)cc(F)cc4c(=O)n3C)CC2)c(C)n1 [Example 456]	1 to 500 nM	2000 to 15000 nM	1 to 500 nM	2000 to 15000 nM	–	–	–	–
CC(Nc1cccc(F)c1C(=O)O)c1cc(F)cc2c(=O)n(C)c(-c3ccc(OCC(F)F)nc3)cc12 (stereo not drawn) [Example 457]	–	–	–	–	1 to 500 nM	> 15000 nM	1 to 500 nM	> 15000 nM
C[C@@H](Nc1ccccc1C(=O)O)c1cc(F)cc2c(=O)n(C)c(-c3cnc(OC4CC4)c(F)c3)cc12 [Example 458]	1 to 500 nM	> 15000 nM	1 to 500 nM	> 15000 nM	–	–	–	–
Cc1ncc(-c2ncc(-c3cc4c(C(C)Nc5ccccc5C(=O)O)cc(F)cc4c(=O)n3C)cc2F)cc1F (stereo not drawn) [Example 459]	–	–	–	–	1 to 500 nM	2000 to 15000 nM	1 to 500 nM	2000 to 15000 nM
Cc1ccc(N2CCN(c3cc4c(C(C)Nc5ccccc5C(=O)O)cc(F)cc4c(=O)n3C)CC2)c(C)n1 (stereo not drawn) [Example 460]	–	–	–	–	1 to 500 nM	500 to 2000 nM	1 to 500 nM	500 to 2000 nM
CC(Nc1ccccc1C(=O)O)c1cc(F)cc2c(=O)n(C)c(-c3ccc(OCC(F)F)nc3)cc12 (stereo not drawn) [Example 462]	–	–	–	–	1 to 500 nM	> 15000 nM	1 to 500 nM	> 15000 nM
C[C@@H](Nc1ccccc1C(=O)O)c1cc(F)cc2c(=O)n(C)c(N3C4CCC3CN(CC(F)(F)F)C4)cc12 [Example 464]	1 to 500 nM	2000 to 15000 nM	1 to 500 nM	2000 to 15000 nM	–	–	–	–
Cc1ncncc1N1CCN(c2cc3c([C@@H](C)Nc4ccccc4C(=O)O)cc(F)cc3c(=O)n2C)CC1 [Example 465]	1 to 500 nM	2000 to 15000 nM	1 to 500 nM	2000 to 15000 nM	–	–	–	–
C[C@@H](Nc1ccccc1C(=O)O)c1cc(F)cc2c(=O)n(C)c(N3CCN(c4nccs4)CC3)cc12 [Example 466]	1 to 500 nM	> 15000 nM	1 to 500 nM	2000 to 15000 nM	–	–	–	–
Cc1cnc(N2CCN(c3cc4c([C@@H](C)Nc5ccccc5C(=O)O)cc(F)cc4c(=O)n3C)CC2)s1 [Example 467]	1 to 500 nM	2000 to 15000 nM	1 to 500 nM	2000 to 15000 nM	–	–	–	–
Cc1nc(C)c(-c2ncc(-c3cc4c(C(C)Nc5ccccc5C(=O)O)cc(F)cc4c(=O)n3C)cc2F)cc1F (stereo not drawn) [Example 471]	–	–	–	–	1 to 500 nM	2000 to 15000 nM	1 to 500 nM	2000 to 15000 nM
Cc1ccc(-c2ncc(-c3cc4c([C@@H](C)Nc5ccccc5C(=O)O)cc(F)cc4c(=O)n3C)cc2F)c(C)n1 [Example 472]	1 to 500 nM	2000 to 15000 nM	1 to 500 nM	2000 to 15000 nM	–	–	–	–
Cc1ccc(-c2ncc(-c3cc4c(C(C)Nc5ccccc5C(=O)O)cc(F)cc4c(=O)n3C)cc2F)cn1 (stereo not drawn) [Example 473]	–	–	–	–	1 to 500 nM	> 15000 nM	1 to 500 nM	2000 to 15000 nM
Cc1cc(C(C)Nc2cccc(F)c2C(=O)O)c2cc(-c3ccc(COC(F)(F)F)nc3)n(C)c(=O)c2c1 (stereo not drawn) [Example 474]	–	–	–	–	1 to 500 nM	> 15000 nM	1 to 500 nM	> 15000 nM
Cc1ncc(N2CCN(c3cc4c([C@@H](C)Nc5cccc(F)c5C(=O)O)cc(F)cc4c(=O)n3C)CC2)s1 [Example 477]	1 to 500 nM	> 15000 nM	1 to 500 nM	2000 to 15000 nM	–	–	–	–
Cc1ncc(N2CCN(c3cc4c([C@@H](C)Nc5ccccc5C(=O)O)cc(F)cc4c(=O)n3C)CC2)s1 [Example 478]	1 to 500 nM	> 15000 nM	1 to 500 nM	2000 to 15000 nM	–	–	–	–
C[C@@H](Nc1ccccc1C(=O)O)c1cc(F)cc2c(=O)n(C)c(-c3cc(F)c4nn(C)cc4c3)cc12 [Example 483]	500 to 2000 nM	> 15000 nM	1 to 500 nM	> 15000 nM	–	–	–	–
C[C@@H](Nc1cccc(F)c1C(=O)O)c1cc(F)cc2c(=O)n(C)c(-c3cc(F)c4nn(C)cc4c3)cc12 [Example 484]	500 to 2000 nM	> 15000 nM	500 to 2000 nM	> 15000 nM	–	–	–	–
Cc1cc([C@@H](C)Nc2nccnc2C(=O)O)c2cc(N3CCN(CC(F)(F)F)CC3)n(C)c(=O)c2c1 [Example 485]	2000 to 15000 nM	2000 to 15000 nM	500 to 2000 nM	> 15000 nM	–	–	–	–
Cc1nc(N2CCN(c3cc4c([C@@H](C)Nc5cccc(F)c5C(=O)O)cc(F)cc4c(=O)n3C)CC2)cs1 [Example 490]	1 to 500 nM	2000 to 15000 nM	1 to 500 nM	2000 to 15000 nM	–	–	–	–
